Source: patent US7132278B2, “PAS kinase” (Board of Regents, The University of Texas System, priority 2001, dated 2006)

Target: PASK (Homo sapiens, UniProt Q96RG2, F1266C/Y899H)
Details: read-out: Km for PASK; ATP as co-substrate
Experimental: One HTS assay kinase assay we employ is a robust and simple, non-radioactive chemiluminescent assay that measures the ability of the human enzyme to phosphorylate a biotinylated derivative of the AMARA peptide. The enzyme is expressed in baculovirus and purified by affinity and ion-exchange chromatography under routine conditions. Assay buffer is composed of 20 mM Tris-HC1, pH 7.5, 10 mM MgC12, 2 mM EGTA, 0.1% NP-40, 0.5 mM benzamidine, 1 mM NaF and 10 mM DTT. Enzyme is added to this buffer at a concentration determined to be in the linear range of activity (10 ng per microtiter plate well). For the most robust and sensitive kinase assay, we use an ATP concentration matching the Kmfor PASK (2.5 mM). After dispensing 80 ul of the enzyme/buffer mix per well in Costar 96-well microtiter plates (coated with Neutravidin at 0.5 mg/ml at room temperature for 2 hr), 10 μl of test compounds is added at a final concentration of 1 μM compound. Compounds are diluted in DMSO from master plates stored in DMSO at 10 mM. Following compound addition, the reactions are initiated by addition of 10 μl of biotinylated AMARA peptide and ATP such that the final concentration of substrate and ATP are 1 mM and 2.5 mM respectively. […] Reactions are developed by addition of 100 μl of Super Signal substrate (Pierce) and read colorimetrically using a Wallac Victor2, 1420 Multilabel Counter.

Sequence of PASK (Q96RG2 whole entry Y899H/F1266C): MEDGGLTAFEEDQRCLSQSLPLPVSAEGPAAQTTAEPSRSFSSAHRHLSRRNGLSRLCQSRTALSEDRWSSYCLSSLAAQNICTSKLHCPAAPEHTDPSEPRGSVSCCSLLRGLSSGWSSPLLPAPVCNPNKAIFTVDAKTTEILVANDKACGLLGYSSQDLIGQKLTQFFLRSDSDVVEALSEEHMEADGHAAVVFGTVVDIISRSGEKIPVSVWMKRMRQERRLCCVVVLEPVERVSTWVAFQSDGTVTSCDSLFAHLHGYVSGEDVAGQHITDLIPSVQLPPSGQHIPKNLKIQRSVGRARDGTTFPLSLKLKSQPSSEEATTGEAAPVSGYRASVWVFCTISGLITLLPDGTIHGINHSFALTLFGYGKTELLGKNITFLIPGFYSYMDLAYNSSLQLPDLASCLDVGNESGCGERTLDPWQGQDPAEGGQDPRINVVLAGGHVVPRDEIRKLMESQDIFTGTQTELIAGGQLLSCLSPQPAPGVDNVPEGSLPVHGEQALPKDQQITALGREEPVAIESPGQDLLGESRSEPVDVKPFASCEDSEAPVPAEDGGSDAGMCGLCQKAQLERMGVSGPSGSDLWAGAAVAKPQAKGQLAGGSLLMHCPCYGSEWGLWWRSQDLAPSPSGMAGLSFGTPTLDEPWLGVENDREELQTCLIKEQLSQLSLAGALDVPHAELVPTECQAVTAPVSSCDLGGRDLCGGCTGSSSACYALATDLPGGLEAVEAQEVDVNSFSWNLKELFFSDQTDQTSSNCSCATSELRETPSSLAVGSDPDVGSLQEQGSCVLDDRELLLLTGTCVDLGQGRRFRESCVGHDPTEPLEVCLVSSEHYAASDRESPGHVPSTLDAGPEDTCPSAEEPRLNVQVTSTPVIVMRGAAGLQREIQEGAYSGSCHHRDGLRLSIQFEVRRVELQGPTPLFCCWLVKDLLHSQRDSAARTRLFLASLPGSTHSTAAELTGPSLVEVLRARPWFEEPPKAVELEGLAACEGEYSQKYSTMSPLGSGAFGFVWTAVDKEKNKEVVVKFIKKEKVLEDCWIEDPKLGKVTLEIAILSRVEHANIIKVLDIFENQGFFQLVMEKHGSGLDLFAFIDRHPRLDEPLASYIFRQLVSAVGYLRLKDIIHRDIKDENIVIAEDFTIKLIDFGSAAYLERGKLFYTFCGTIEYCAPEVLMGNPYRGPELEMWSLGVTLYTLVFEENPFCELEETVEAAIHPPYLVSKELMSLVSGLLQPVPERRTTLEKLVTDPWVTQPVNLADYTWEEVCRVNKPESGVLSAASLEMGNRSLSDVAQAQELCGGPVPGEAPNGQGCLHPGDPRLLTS

Question: With `Nc1ncnc2c1ncn2[C@@H]1O[C@H](COP(=O)(O)OP(=O)(O)OP(=O)(O)O)[C@@H](O)[C@H]1O` [ATP] as the molecule, how does the Km read?
Answer: 2500 µM
